Non-standard residues stand in square brackets, D forms with d. Primed or numbered codes have the meaning given here. No end group written: not given here. Ida(3) = iminodiacetic acid linker, Lys side-chain amines bound to its two carboxyl groups; Ida(4) = iminodiacetic acid linker (dimerization linker bound to lysine side chain); Ida″ = iminodiacetic acid linker bound to the Lys side-chain amine, forming a dimer; d(hPhe) = N[C@H](CCc1ccccc1)C(=O)O; Phg = N[C@H](C(=O)O)c1ccccc1
Each compound was assayed on HUVECs. Conditions: 48 h.
Format: cell-based
Method: HUVECs were routinely cultured to near confluency in EGM media (Clontech, Mountain View, California). The cells were trypsinized and plated in a 96-well plate at 5,000 cells per well per 100 μl EBM supplemented with 2% FCS and antibiotics. The cells were allowed to adhere to the plate for at least 12 hours. Then, bFGF at 10 ng/ml or VEGF at 5 ng/ml, and various concentrations of peptide, were added to the wells. The cells were cultured for 48 hours at 37 ° C. in a 5% CO2 atmosphere. Cell proliferation was determined using a bromo-deoxyuridine (BrdU) incorporation method as described by the manufacturer. Inhibition of cell proliferation was assessed by BrdU incorporation.

Row | Compound | IC50
1 | CC[C@H](C)[C@H](NC(=O)[C@H](C)NC(=O)[C@@H](NC(=O)[C@H](CCSC)NC(=O)[C@H](CCC(N)=O)NC(=O)[C@H](CCCNC(=N)N)NC(=O)[C@H](CCCNC(=N)N)NC(=O)[C@H](CCCNC(=N)N)NC(=O)[C@H](CCCNC(=N)N)NC(=O)[C@H](C)NC(C)=O)C(C)C)C(=O)N[C@@H](Cc1ccc(O)cc1)C(=O)N[C@@H](Cc1ccccc1)C(=O)N[C@@H](CCCCNC(=O)CN(CC(=O)NCCCC[C@H](NC(=O)[C@H](Cc1ccccc1)NC(=O)[C@H](Cc1ccc(O)cc1)NC(=O)[C@@H](NC(=O)[C@H](C)NC(=O)[C@@H](NC(=O)[C@H](CCSC)NC(=O)[C@H](CCC(N)=O)NC(=O)[C@H](CCCNC(=N)N)NC(=O)[C@H](CCCNC(=N)N)NC(=O)[C@H](CCCNC(=N)N)NC(=O)[C@H](CCCNC(=N)N)NC(=O)[C@H](C)NC(C)=O)C(C)C)[C@@H](C)CC)C(N)=O)C(=O)CCNC(=O)OC(C)(C)C)C(N)=O [Peptide 385] | < 10 µM
2 | CC[C@H](C)[C@H](NC(=O)[C@H](C)NC(=O)[C@@H](NC(=O)[C@H](C)NC(=O)[C@H](CCC(N)=O)NC(=O)[C@H](CCCNC(=N)N)NC(=O)[C@H](CCCNC(=N)N)NC(=O)[C@H](CCCNC(=N)N)NC(=O)[C@H](CCCNC(=N)N)NC(=O)[C@H](CCCNC(=N)N)NC(C)=O)C(C)C)C(=O)N[C@@H](Cc1c[nH]cn1)C(=O)N[C@@H](Cc1ccccc1)C(=O)N[C@@H](CCCCNC(=O)CN(CC(=O)NCCCC[C@H](NC(=O)[C@H](Cc1ccccc1)NC(=O)[C@H](Cc1c[nH]cn1)NC(=O)[C@@H](NC(=O)[C@H](C)NC(=O)[C@@H](NC(=O)[C@H](C)NC(=O)[C@H](CCC(N)=O)NC(=O)[C@H](CCCNC(=N)N)NC(=O)[C@H](CCCNC(=N)N)NC(=O)[C@H](CCCNC(=N)N)NC(=O)[C@H](CCCNC(=N)N)NC(=O)[C@H](CCCNC(=N)N)NC(C)=O)C(C)C)[C@@H](C)CC)C(N)=O)C(=O)CCNC(=O)OC(C)(C)C)C(N)=O [Peptide 250] | < 10 µM
3 | CC[C@H](C)[C@H](NC(=O)[C@H](CCCNC(=N)N)NC(=O)[C@@H](NC(=O)[C@H](CCCNC(=N)N)NC(=O)[C@H](CCC(N)=O)NC(=O)[C@H](CCCNC(=N)N)NC(=O)[C@H](CCCNC(=N)N)NC(=O)[C@H](CCCNC(=N)N)NC(=O)[C@H](CCCNC(=N)N)NC(=O)[C@H](CCCNC(=N)N)NC(C)=O)C(C)C)C(=O)N[C@@H](Cc1ccc(O)cc1)C(=O)N[C@@H](Cc1ccccc1)C(=O)N[C@@H](CCCCNC(=O)CN(CC(=O)NCCCC[C@H](NC(=O)[C@H](Cc1ccccc1)NC(=O)[C@H](Cc1ccc(O)cc1)NC(=O)[C@@H](NC(=O)[C@H](CCCNC(=N)N)NC(=O)[C@@H](NC(=O)[C@H](CCCNC(=N)N)NC(=O)[C@H](CCC(N)=O)NC(=O)[C@H](CCCNC(=N)N)NC(=O)[C@H](CCCNC(=N)N)NC(=O)[C@H](CCCNC(=N)N)NC(=O)[C@H](CCCNC(=N)N)NC(=O)[C@H](CCCNC(=N)N)NC(C)=O)C(C)C)[C@@H](C)CC)C(N)=O)C(=O)CCNC(=O)OC(C)(C)C)C(N)=O [Peptide 279] | < 10 µM

Same assay, conditions: HUVEC proliferation, bFGF at 10 ng/ml or VEGF at 5 ng/ml, 48 hours, BrdU incorporation; read-out: IC50 on HUVECs

Row | Compound | IC50
4 | 489 (Ac-PRRRPQAVAIK(Ida″)F; also: homodimer via Ida linker on Lys11 side chain) [compound 489] | < 10 µM
5 | 373 (Ac-ARRRRQRVA[d(hPhe)]YFK(Ida(3))-NH2; also: homodimer via Ida linker on Lys13 side chain, Boc on Ida amine) [compound 373] | 10 to 30 µM
6 | 512 (Ac-ARRRRGRVAIYFK; not fully specified (C-terminus); also: homodimer via Ida linker at Lys13 side chain) [compound 512] | < 10 µM
7 | 367 (Ac-ARRRRQRVAPYFK-NH2; not fully specified (residue 13); also: homodimer of residues 1-13 via Ida linker on K13 side chain) [compound 367] | > 30 µM
8 | TKRKRKKQRVKIAYEEIFVKNM [compound 2] | 10 to 30 µM
9 | 227 (Ac-ARRRRQRVAIWFK; also: homodimer via Ida linker on side chain of Lys13) [compound 227] | < 10 µM
10 | 480 (Ac-PRRRWQAVAIYFK(Ida(3)); not fully specified (C-terminus); also: homodimer via Ida linker on Lys13 side chain) [compound 480] | 10 to 30 µM
11 | 364 (Ac-ARRRRQRVAEYFK-NH2; not fully specified (residue 13); also: homodimer of residues 1-13 via Ida linker on K13 side chain) [compound 364] | > 30 µM
12 | 351 (Ac-ARRRRQRVAIYGK-NH2; not fully specified (residue 13); also: homodimer of residues 1-13 via Ida linker on K13 side chain) [compound 351] | > 30 µM
13 | KTKRKRKKQRVKIAYEEAAVQNM [compound 47] | > 30 µM
14 | KTKRKRKKQRVKIAYEEIM [compound 42] | > 30 µM
15 | 374 (Ac-ARRRRQRVA[Phg]YFK(Ida(3))-NH2; also: homodimer via Ida linker on Lys13 side chain, Boc on Ida amine) [compound 374] | < 10 µM
16 | 490 (Ac-PRRRRQSVAIK(Ida″)F; also: homodimer via Ida linker on Lys11 side chain) [compound 490] | 10 to 30 µM
17 | 454 (Ac-SRRRRQAVAIVFK-NH2; not fully specified (residue 13); also: homodimer via Ida linker at K13) [compound 454] | < 10 µM
18 | 168 (Ac-RRRRRQRVRIIFK; also: homodimer via GP3 linker on Lys13 side chains) [compound 168] | < 10 µM
19 | 337 (Ac-RHRHRQHVRIYFK(Ida(3))-NH2; also: homodimer via Lys13 side chain, Ida linker (Ida amino group Boc)) [compound 337] | < 10 µM
20 | KTKRKRKKQAAKIAYEEIFVQNM [compound 73] | > 30 µM
21 | KTKRKRKKQRVKIAYEEIFVKNM [compound 5] | < 10 µM
22 | KTKRKRKKQRVKIA [compound 37] | > 30 µM
23 | 427 (Ac-ARRRRQAVAIK(Ida(4))F; also: homodimer of residues 1-12 via Ida linker on Lys11 side chain) [compound 427] | < 10 µM
24 | KTKRKRKKQRVKIIFV [compound 85] | < 10 µM
25 | 449 (Ac-RRRRRAAAAAAAK(Ida(4)); not fully specified (C-terminus); also: homodimer via Ida linker at K13) [compound 449] | > 30 µM
26 | 485 (Ac-ARRRPQAVAIKF; not fully specified (residue 11); also: homodimer: Lys11 side chain bound to Ida linker (Boc on Ida N)) [compound 485] | < 10 µM
27 | 441 (Ac-RRRRTQAVAIYFK(Ida(4)); not fully specified (C-terminus); also: homodimer via Ida linker at K13) [compound 441] | < 10 µM
28 | 352 (Ac-ARRRRQRVAIYIK-NH2; not fully specified (residue 13); also: homodimer of residues 1-13 via Ida linker on K13 side chain) [compound 352] | < 10 µM
29 | KTKRKRKKQRVKIAYEEIFAANM [compound 46] | 10 to 30 µM
30 | 450 (Ac-ARRRRQAVAILFK-NH2; not fully specified (residue 13); also: homodimer via Ida linker at K13) [compound 450] | < 10 µM

— patent US20070203066A1, “Compositions and methods for inhibiting cellular proliferation” (priority 2005, published 2007)
